Experiment [1] concerns v-Src/3T3 cells. Nature of the experiment: TUNEL apoptosis assay, v-Src/3T3. To be noted: 10 μM withacnistin mixture, 24 hours. Format: cell-based, murine. How it is done:
(§1) In vitro cellular proliferation and TUNEL assays. Subconfluent A549, MDA-MB-435, MDA-MB-453, MDAMB-468, v-Src transformed NIH 3T3 (v-Src/3T3), H-Ras transformed NIH 3T3 (H-Ras/3T3), and vector NIH 3T3 cells were grown in the presence of 10 μM cucurbitacin A, cucurbitacin I, withacnistin mixture, or DMSO vehicle control. After 24 hours, cells were harvested by trypsinization and counted via trypan blue exclusion assay to determine cellular viability. In all, 75,000-150,000 cells (depending on cell line) were then spun onto glass slides using a Cytospin 3 centrifuge (Thermo Shandon Inc., Pittsburgh, Pa., USA). After fixing cells to the slides with 4% paraformaldehyde in PBS, pH 7.5, for 1 h at room temperature, cells were labeled for apoptotic DNA strand breaks by TUNEL reaction using an in situ cell death detection kit (Roche Applied Science, Indianapolis, Ind., USA) according to the manufacturer's instructions, then mounted in Vectashield mounting medium (Vector Laboratories, Burlingame, Calif., USA) containing 4′,6-diamidino-2-phenylindole (DAPI) to counterstain DNA. […] TUNELpositive nuclei were counted and compared to DAPI-stained nuclei to determine the percent induction of apoptosis by the different cucurbitacin compounds. Statistical significance between control and treated tumors were evaluated by using Student's t-test. […]

Experiment [2] has as its system MDA-MB-453 cells. Nature of the experiment: TUNEL apoptosis assay, MDA-MB-453. To be noted: 10 μM withacnistin mixture, 24 hours. Type of experiment: cell-based, human. How it is done: as §1
The subject of experiment [3] is SOCS3. Briefly: SOCS3 levels in cancer cell lines. Format: cell-based, human. To be noted: A549 cells. Here is the method: Activation of STAT3 occurs through its tyrosine phosphorylation. Inactivation of STAT3 can occur through several mechanisms including dephosphorylation by phosphotyrosine protein phosphatases as well as blocking STAT3 activation by SOCS3, which binds and prevents kinases from activating STAT3. To determine whether Wit also affects negative regulators of STAT3, its effects on SOCS3 were determined. To this end, A549 cells were first treated with Wit for various periods of time and its effects on both P-STAT3 and SOCS3 were determined. […] However, by 24 hours, Wit suppressed both P-STAT3 and total STAT3 levels (data not shown). […] It is important to note that WM had little effect on […] protein levels (FIGS. 11A and 11C).

Experiment [4] concerns H-Ras/3T3 cells. Nature of the experiment: TUNEL apoptosis assay, H-Ras/3T3. The conditions noted are these: 10 μM withacnistin mixture, 24 hours. Type of experiment: cell-based, murine. How it is done: as §1

`CC(=O)OC[C@]12CC[C@H]3[C@@H](C[C@H]4O[C@]45[C@@H](O)C=CC(=O)[C@]35C)[C@@H]1CC[C@@H]2[C@H](C)[C@H]1CC(C)=C(C)C(=O)O1` [withacnistin]: in experiment [1], the “apoptosis (TUNEL-positive cells)” value is 39.2±7.3% and the “fold increase of apoptosis over control” value came out at 50.2 fold. Also, the “increase of percentage of apoptotic cells compared to vehicle control” value in experiment [2] came to 4.7 fold. In experiment [3], the “levels of SOCS3” value is given as “induced” and the “onset of SOCS3 induction” value is “detectable only after two hours”. In experiment [4], the “apoptosis (TUNEL-positive cells)” value came out at 7.3±4.7% and the “fold increase of apoptosis over control” value is 12.5 fold.

Values taken from patent US20070191490A1, “Withacnistin compounds for treatment of cancer” (priority 2006, published 2007).
